Key:
[1] = Pharmacokinetic studies, single oral and intravenous dose; format: in vivo, BALB/c mice
Method: Samples (100 μl) were drawn at 0, 15, 30 and 60 min from SGF reaction-vials and at 0, 30, 60 and 120 min from SIF reaction-vials, quenched with acetonitrile, vortex-mixed, and centrifuged before supernatant analysis by LC-MS/MS analysis. […] For PK studies, a sparse sampling design with 3 mice per time point was used to collect blood samples at 5, 10, 15, 30 min and 1, 2, 3, 4, 5 and 6 h in K2EDTA-coated tubes. The pharmacokinetic parameters (AUClast, Cmax, CL and Vss) were calculated using non-compartmental analysis tool of Phoenix WinNonlin software (version 6.3).
Nine animals per group were used for PK studies. A sparse sampling design was used to collect blood samples from animals at 5 min, 10 min, 15 min, 30 min, 1, 2, 3, 4, 5, and 6 h in K2EDTA coated tubes. Plasma was collected from blood by centrifugation of samples at 8000 g for 10 min. Plasma samples were stored below −60° C. until further analysis.
PK parameters were calculated from the concentration-time data using the non-compartmental analysis tool of Phoenix WinNolin® software (version 6.3, Pharsight, St Louis, Mo.). The area under the concentration time curve (AUClast) was calculated by the linear trapezoidal rule. Following oral administration, peak concentration (Cmax) and time for the peak concentration (Tmax) were the observed values. The clearance (CL) and volume of distribution (Vss) were estimated following IV dose administration. The elimination rate constant value (k) was obtained by linear regression of the log-linear terminal phase of the concentration-time profile using at least three declining concentrations in terminal phase with a correlation coefficient of >0.8. The terminal half-life value (T1/2) was calculated using the equation ln 2/k. Oral bioavailability was calculated by taking the ratio of dose normalized AUClast following oral administration to IV administration.

[2] = tested on: Ki67; experiment: Immunohistochemical staining of PC-3-luc xenografts; format: in vivo, mice; settings: Etn-treated tumors (40 mg/kg)
Method: (§1) OCR was measured using an oxygen electrode.
While ˜62% cells were Ki67-positive in untreated control tumors, Ki67 positivity was reduced to ˜40% in Etn-treated tumors (FIG. 14, panel Dii).
Tumors were formalin-fixed, paraffin-embedded and 5 μm thick prostate tumor sections were stained for Ki67 and c-PARP, and prostate cancer TMA (US Biomax, Derwood, Mass.) was immunostained for choline kinase. All stained slides were examined by a pathologist in a blinded-manner.

[3] = tested on: PC-3 cells; experiment: Annexin V binding assay (flow cytometry); format: cell-based, human; settings: 2.0 mg/ml Etn
Method: Annexin V binding assays were performed for control and 2.0 mg/ml Etn-treated cells along with counterstaining with 7-AAD to distinguish between dead and apoptotic cells. Annexin V positive cells were analyzed using flow cytometry. Representative scatter plots for control and Etn-treated cells stained with 7-AAD and annexin V are shown.
Annexin-V is known to bind to phosphatidylserine (PS) lipids which flip to the outer leaflet of plasma membrane in apoptotic cells (Vermes I. et al., J. Immunol. Methods, 1995, vol. 184, pp. 39-51). Annexin-V binding to PS is therefore a good indicator of cells undergoing apoptosis.

[4] = tested on: pRb, Cdk4, Cdk2, p21, c-PARP, Bim, Bcl-2; experiment: Immunoblot of cell lysates; format: cell-based, human; settings: PC-3 cells, 2 mg/ml Etn for 48 h
Method: as §1
(§2) Proteins were resolved by polyacrylamide gel electrophoresis and transferred onto polyvinylidene difluoride membranes (Millipore, Billerica, Mass., USA). The membranes were blocked in Tris-buffered saline containing 0.05% Tween-20 and 5% fat-free dry milk and incubated first with primary antibodies and then with horseradish peroxidase-conjugated secondary antibodies. Specific proteins were visualized with enhanced chemiluminescence detection reagent according to the manufacturer's instructions (Pierce Biotechnology, Rockford, Ill., USA).

[5] = tested on: p53, p21, Bax, pBcl-2, c-PARP, Bim, Bid, HIF1-α; experiment: Immunoblot of PC-3-luc tumor lysates; format: in vivo, mice
Method: as §1
Since p21, Bax and pBcl2 are downstream effectors of p53, p53 expression levels were examined in control and Etn-treated tumors, as well as control and Etn-treated PC-3 cells.
To test this hypothesis, HIF1-α expression levels were analyzed in Etn-treated tumors and PC-3 cells. […] DMOG, an HIF1-α activator, was then employed to test whether Etn-mediated cell death in PC-3 cells was associated with HIF1-α stabilization (active HIF1-α signaling).
as §2

[6] = target: CYP2C19 (Homo sapiens, UniProt P33261); experiment: CYP inhibition in human liver microsomes
[7] = tested on: PC-3-luc tumors; experiment: Glucose and glutamine contents in tumors (LC-MS/MS); settings: 40 mg/kg Etn-treated tumors vs untreated control

CYP2C19, sequence (P33261 whole entry): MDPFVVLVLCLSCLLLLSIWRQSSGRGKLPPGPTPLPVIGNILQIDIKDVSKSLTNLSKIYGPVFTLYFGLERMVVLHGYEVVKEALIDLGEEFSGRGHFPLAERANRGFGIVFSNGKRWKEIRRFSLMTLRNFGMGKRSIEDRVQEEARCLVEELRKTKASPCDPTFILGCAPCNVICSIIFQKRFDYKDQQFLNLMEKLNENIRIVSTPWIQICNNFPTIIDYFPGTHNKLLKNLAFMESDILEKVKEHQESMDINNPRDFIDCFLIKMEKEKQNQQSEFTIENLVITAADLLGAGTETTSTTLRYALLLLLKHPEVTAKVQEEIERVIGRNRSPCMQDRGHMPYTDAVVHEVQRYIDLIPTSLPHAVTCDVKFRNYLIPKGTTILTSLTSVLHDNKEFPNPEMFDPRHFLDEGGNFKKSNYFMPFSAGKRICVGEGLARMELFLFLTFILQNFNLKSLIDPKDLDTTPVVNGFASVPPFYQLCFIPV

## NCCO [Etn, monoethanolamine]
[1]; oral 40 mg/kg Etn
  AUClast of Etn compared to PhosE: 13 fold
  Cmax of Etn compared to PhosE: 32 fold
[1]; oral Etn administration, analyte Etn
  time to reach peak plasma concentration: 10 min
[2]
  Ki67 positivity: ~40%
[3]
  annexin-V positive cells: ~25%
[4]
  protein expression of apoptosis regulators: an increase in protein expression of proapoptotic markers (c-PARP and Bim) and a decrease in antiapoptotic molecules (Bcl-2)
  protein expression of cell-cycle regulators: downregulated protein expression of pRb, Cdk4, and Cdk2, and upregulated p21 expression
[5]; 40 mg/kg Etn-treated mice
  expression of cell-cycle and apoptotic markers in tumor lysates: upregulated p21, Bax, pBcl2 c-PARP, Bim and Bid
  p53 protein level in tumors: higher levels of p53 protein than untreated control tumors
[5]; Etn-treated tumors relative to untreated control tumors
  HIF1-α protein expression in tumors: Downregulation of HIF1-α protein expression
[6]
  IC50: > 100 µM
[7]
  glucose and glutamine contents: significantly reduced
